This assay concerns the target T1, MAGL (Homo sapiens, UniProt Q99685).
T1 sequence (Q99685 1-303): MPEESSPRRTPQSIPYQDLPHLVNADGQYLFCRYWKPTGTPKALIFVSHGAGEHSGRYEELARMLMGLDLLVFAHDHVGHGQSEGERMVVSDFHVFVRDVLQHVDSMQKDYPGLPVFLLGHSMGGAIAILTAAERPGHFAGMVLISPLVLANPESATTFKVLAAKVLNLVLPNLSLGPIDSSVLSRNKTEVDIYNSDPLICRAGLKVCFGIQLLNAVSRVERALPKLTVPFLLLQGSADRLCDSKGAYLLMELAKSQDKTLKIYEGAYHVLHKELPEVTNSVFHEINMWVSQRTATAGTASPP
The assay can be described thus: 2-AG assay: MAGL inhibitory activity by hydrolysis of 2-arachidonoylglycerol to arachidonic acid, mass spectrometry. The assay is classed as biochemical. To be noted: 2-AG assay (values marked [b]). As to the method: Alternatively, compounds were profiled for MAGL inhibitory activity by determining the enzymatic activity by following the hydrolysis of the natural substrate 2-arachidonoylglycerol (2-AG) resulting in arachidonic acid, which can be followed by mass spectrometry. This assay is hereinafter abbreviated “2-AG assay”.
The 2-AG assay was carried out in 384 well assay plates (PP, Greiner Cat #784201) in a total volume of 20 μL. Compound dilutions were made in 100% DMSO (VWR Chemicals 23500.297) in a polypropylene plate in 3-fold dilution steps to give a final concentration range in the assay from 12.5 μM to […]. 0.25 μL compound dilutions (100% DMSO) were added to 9 μL MAGL in assay buffer (50 mM TRIS (GIBCO, 15567-027), 1 mM EDTA (Fluka, 03690-100 mL), 0.01% (v/v) Tween. After shaking, the plate was incubated for 15 min at RT. To start the reaction, 10 μL 2-arachidonoylglycerol in assay buffer was added. The final concentrations in the assay was […] and 8 μM 2-arachidonoylglyerol. After shaking and 30 min incubation at RT, the reaction was quenched by the addition of 40 μL of ACN containing 4 μM of d8-arachidonic acid. The amount of arachidonic acid was traced by an online SPE system (Agilent Rapidfire) coupled to a triple quadrupole mass spectrometer (Agilent 6460). A C18 SPE cartridge (G9205A) was used in an ACN/water liquid setup. The mass spectrometer was operated in negative electrospray mode following the mass transitions 303.1→259.1 for arachidonic acid and 311.1→267.0 for d8-arachidonic acid. The activity of the compounds was calculated based on the ratio of intensities [arachidonic acid/d8-arachidonic acid].

As a reminder, the IC50 is the point on the concentration scale where inhibition reaches its midpoint. A higher IC50 goes with lower potency. For the compound `CC(C)(C)c1nc(-c2ccc(C(=O)N3C4CCC3CN(c3nc5nc(Cl)ccc5o3)C4)cc2)no1` [Example 297, [4-(5-tert-butyl-1,2,4-oxadiazol-3-yl)phenyl]-[3-(5-chlorooxazolo[4,5-b]pyridin-2-yl)-3,8-diazabicyclo[3.2.1]octan-8-yl]methanone], the midpoint of inhibition, the IC50, lay at 100 nM.
For the compound `O=C(c1ccc(-c2cn(C34CC(C3)C4)nn2)cc1)N1CCN(c2nc3nc(Cl)ccc3o2)CC1` [Example 95, (4-(1-(bicyclo[1.1.1]pentan-1-yl)-1H-1,2,3-triazol-4-yl)phenyl)(4-(5-chlorooxazolo[4,5-b]pyridin-2-yl)piperazin-1-yl)methanone], inhibition was half-maximal at 42 nM (IC50).
On to `Cc1cc(C(=O)N2CCN(c3nc4nc(Cl)ccc4o3)CC2)cnc1OCc1cc(F)cc(C#N)c1` [Example 165, 3-(((5-(4-(5-chlorooxazolo[4,5-b]pyridin-2-yl)piperazine-1-carbonyl)-3-methylpyridin-2-yl)oxy)methyl)-5-fluorobenzonitrile], for which the IC50 is 42 nM.
As for `Cc1cc(C(=O)N2CCN(c3nc4nc(Cl)ccc4o3)CC2)cnc1-n1cnc(C(C)(C)C)n1` [Example 129, [6-(3-tert-butyl-1,2,4-triazol-1-yl)-5-methylpyridin-3-yl]-[4-(5-chloro-[1,3]oxazolo[4,5-b]pyridin-2-yl)piperazin-1-yl]methanone], the IC50 worked out at 52 nM.
Take `CC(C)(C)Cn1nncc1-c1ncc(C(=O)N2CCN(c3nc4nc(Cl)ccc4o3)CC2)cc1F` [Example 242, (4-(5-chlorooxazolo[4,5-b]pyridin-2-yl)piperazin-1-yl)(5-fluoro-6-(1-neopentyl-1H-1,2,3-triazol-5-yl)pyridin-3-yl)methanone]: 8410 nM corresponded to half-maximal inhibition (IC50).
`Cc1ccc2oc(N3CCN(C(=O)c4ccc(-c5cn(CC6(F)CC6)nn5)cc4)CC3)nc2n1` [Example 126, (4-(1-((1-fluorocyclopropyl)methyl)-1H-1,2,3-triazol-4-yl)phenyl)(4-(5-methyloxazolo[4,5-b]pyridin-2-yl)piperazin-1-yl)methanone] gave an IC50 of 472 nM.
The result for `Cc1ccc2oc(N3CCN(C(=O)c4ccc(-c5ncn(C(C)(C)C)n5)c(F)c4)CC3)nc2n1` [Example 106, [4-(1-tert-butyl-1,2,4-triazol-3-yl)-3-fluorophenyl]-[4-(5-methyl-[1,3]oxazolo[4,5-b]pyridin-2-yl)piperazin-1-yl]methanone] reads 36 nM.
`Cc1cc(C(=O)N2CCN(c3nc4nc(Cl)ccc4o3)CC2)cnc1OC[C@H](F)CF` [Example 172, (S)-(4-(5-chlorooxazolo[4,5-b]pyridin-2-yl)piperazin-1-yl)(6-(2,3-difluoropropoxy)-5-methylpyridin-3-yl)methanone] returned an IC50 of 978 nM.
For the compound `COC(C)(C)Cn1cc(-c2ccc(C(=O)N3CCN(c4nc5nc(Cl)ccc5o4)CC3)cc2)nn1` [Example 258, [4-(5-chlorooxazolo[4,5-b]pyridin-2-yl)piperazin-1-yl]-[4-[1-(2-methoxy-2-methyl-propyl)triazol-4-yl]phenyl]methanone], the IC50 came out at 31 nM.
`COc1cc(C(=O)N2CCN(c3nc4nc(C)ccc4o3)CC2)ccc1-c1ncn(C(C)(C)C)n1` [Example 123, (4-(1-(tert-butyl)-1H-1,2,4-triazol-3-yl)-3-methoxyphenyl)(4-(5-methyloxazolo[4,5-b]pyridin-2-yl)piperazin-1-yl)methanone] came in with an IC50 of 174 nM.
In the case of `CC1(n2cc(-c3ccc(C(=O)N4CCN(c5nc6nc(Cl)ccc6o5)CC4)cc3)nn2)COC1` [Example 110, [4-(5-chloro-[1,3]oxazolo[4,5-b]pyridin-2-yl)piperazin-1-yl]-[4-[1-(3-methyloxetan-3-yl)triazol-4-yl]phenyl]methanone] it was 859 nM; in that of `Cc1nc(C(=O)N2CCN(c3nc4nc(Cl)ccc4o3)CC2)ccc1OCC1(C(F)(F)F)CC1` [Example 140, [4-(5-chlorooxazolo[4,5-b]pyridin-2-yl)piperazin-1-yl]-[6-methyl-5-[[1-(trifluoromethyl)cyclopropyl]methoxy]-2-pyridyl]methanone], 326 nM.
In the case of `O=C(c1ccc(-c2cn(CC3COC3)nn2)cc1)N1CCN(c2nc3nc(Cl)ccc3o2)CC1` [Example 114, [4-(5-chloro-[1,3]oxazolo[4,5-b]pyridin-2-yl)piperazin-1-yl]-[4-[1-(oxetan-3-ylmethyl)triazol-4-yl]phenyl]methanone] it was 5550 nM; in that of `Cc1ccc2oc(N3CCN(C(=O)c4ccc(-c5ncn(C(C)(C)C)n5)c(C)c4)CC3)nc2n1` [Example 96, (4-(1-(tert-butyl)-1H-1,2,4-triazol-3-yl)-3-methylphenyl)(4-(5-methyloxazolo[4,5-b]pyridin-2-yl)piperazin-1-yl)methanone], 23 nM; in that of `Cc1ccc2oc(N3CCN(C(=O)c4ccc(-c5cn(C67CC(C6)C7)nn5)cc4)CC3)nc2n1` [Example 94, (4-(1-(bicyclo[1.1.1]pentan-1-yl)-1H-1,2,3-triazol-4-yl)phenyl)(4-(5-methyloxazolo[4,5-b]pyridin-2-yl)piperazin-1-yl)methanone], 88 nM.
The result for `Cc1cc(C(=O)N2CCN(c3nc4nc(Cl)ccc4o3)CC2)cnc1OCC1CCO1` (stereo not shown) [Example 168, (4-(5-chlorooxazolo[4,5-b]pyridin-2-yl)piperazin-1-yl)(5-methyl-6-(oxetan-2-ylmethoxy)pyridin-3-yl)methanone] reads 1750 nM; that for `Cc1cc(C(=O)N2CCN(c3nc4nc(Cl)ccc4o3)CC2)cnc1-c1cnn(CC(C)(C)C)n1` [Example 272, (4-(5-chlorooxazolo[4,5-b]pyridin-2-yl)piperazin-1-yl)(5-methyl-6-(2-neopentyl-2H-1,2,3-triazol-4-yl)pyridin-3-yl)methanone], 9 nM.
`Cc1ccc2oc(N3CCN(C(=O)c4ccc(-c5cnn(CC(C)(C)C)n5)c(C#N)c4)CC3)nc2n1` [Example 236, 5-(4-(5-methyloxazolo[4,5-b]pyridin-2-yl)piperazine-1-carbonyl)-2-(2-neopentyl-2H-1,2,3-triazol-4-yl)benzonitrile] returned an IC50 of 33 nM.
The result for `Cc1ccc2oc(N3CCN(C(=O)c4cnc(OCC5(C(F)(F)F)CC5)c(OCC5(C(F)(F)F)CC5)c4)CC3)nc2n1` [Example 151, (5,6-bis((1-(trifluoromethyl)cyclopropyl)methoxy)pyridin-3-yl)(4-(5-methyloxazolo[4,5-b]pyridin-2-yl)piperazin-1-yl)methanone] reads 55 nM.
In the case of `CC(C)(C)Cn1ncc(-c2ccc(C(=O)N3CCN(c4nc5nc(Cl)ccc5o4)CC3)cc2C(F)(F)F)n1` [Example 269, (4-(5-chlorooxazolo[4,5-b]pyridin-2-yl)piperazin-1-yl)(4-(2-neopentyl-2H-1,2,3-triazol-4-yl)-3-(trifluoromethyl)phenyl)methanone] it was 6 nM.
`Cc1cc(C(=O)N2CCN(c3nc4nc(Cl)ccc4o3)CC2)cnc1-c1nnn(CC(C)(C)C)n1` [Example 308, [4-(5-chlorooxazolo[4,5-b]pyridin-2-yl)piperazin-1-yl]-[6-[2-(2,2-dimethylpropyl)tetrazol-5-yl]-5-methyl-3-pyridyl]methanone] had an IC50 of 111 nM.
In the case of `Cc1cc(C(=O)N2CCN(c3nc4nc(Cl)ccc4o3)CC2)cnc1OCC1(C)COC1` [Example 157, (4-(5-chlorooxazolo[4,5-b]pyridin-2-yl)piperazin-1-yl)(5-methyl-6-((3-methyloxetan-3-yl)methoxy)pyridin-3-yl)methanone] it was 317 nM.
